Experimental data: patent US20230085307A1, “PYRIDAZINONE COMPOUND AND HERBICIDE” (NISSAN CHEMICAL CORPORATION, priority 2019, published 2023)

Experiments:
wild oat [1] = test: Test Example 4: herbicidal effect by soil treatment (Table 19, symbol I); assay type: in vivo, wild oat (Avena fatua); conditions: amount of applied herbicide 320 g/ha
In short: (§1)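 Scoring uses the grading scale of an earlier test, three weeks post-application. Treatment consists of spraying a diluted emulsion formulation across the surface of sterilized diluvial soil in which seeds are buried near 1.5 cm deep; boxes are kept in a greenhouse between 25° C. and 30° C.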

late watergrass = test: Test Example 1: herbicidal activity, application before weed generation under submerged conditions (Table 16, symbol A); assay type: in vivo, late watergrass (Echinochloa oryzicola); conditions: amount of applied herbicide 320 g/ha
In short: (§2)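 Alluvial soil was flooded to 4 cm depth, weed seeds were sown mixed and 2.5-leaf rice seedlings were transplanted. On sowing day, the compound's emulsion, diluted in water to a set dose, was applied to the water surface. Plants grew at 25–30 °C and were scored 0–5 after three weeks.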

persian speedwell [2] = test: Test Example 4: herbicidal effect by soil treatment (Table 19, symbol R); assay type: in vivo, Persian speedwell (Veronica persica); conditions: amount of applied herbicide 320 g/ha
In short: as §1

southern crabgrass [3] = test: Test Example 5: herbicidal effect by foliage application, plastic box (Table 20, symbol F); assay type: in vivo, southern crabgrass (Digitaria ciliaris); conditions: 320 g/ha, foliage application after 14-day growth, evaluated three weeks after application
In short: (§3)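 Post-emergence foliar test in sterilized diluvial soil. Compound applied as water-diluted emulsion at a predetermined rate to 14-day-old plants; evaluation at three weeks.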

windgrass [4] = test: Test Example 5: herbicidal effect by foliage application, plastic box (Table 20, symbol L); assay type: in vivo, windgrass (Apera spica-venti); conditions: 320 g/ha, foliage application after 14-day growth, evaluated three weeks after application
In short: as §3

blackgrass [5] = test: Test Example 5: herbicidal effect by foliage application, plastic box (Table 20, symbol J); assay type: in vivo, blackgrass (Alopecurus myosuroides); conditions: 320 g/ha, foliage application after 14-day growth, evaluated three weeks after application
In short: as §3

southern crabgrass [6] = test: Test Example 4: herbicidal effect by soil treatment (Table 19, symbol F); assay type: in vivo, southern crabgrass (Digitaria ciliaris); conditions: amount of applied herbicide 320 g/ha
In short: as §1

oval-leafed pondweed = test: Test Example 1: herbicidal activity, application before weed generation under submerged conditions (Table 16, symbol C); assay type: in vivo, oval-leafed pondweed (Monochoria vaginalis); conditions: amount of applied herbicide 320 g/ha
In short: as §2

green foxtail [7] = test: Test Example 4: herbicidal effect by soil treatment (Table 19, symbol G); assay type: in vivo, green foxtail (Setaria viridis); conditions: amount of applied herbicide 320 g/ha
In short: as §1

Italian ryegrass [8] = test: Test Example 4: herbicidal effect by soil treatment (Table 19, symbol K); assay type: in vivo, Italian ryegrass (Lolium multiflorum); conditions: amount of applied herbicide 320 g/ha
In short: as §1

velvetleaf [9] = test: Test Example 4: herbicidal effect by soil treatment (Table 19, symbol M); assay type: in vivo, velvetleaf (Abutilon theophrasti); conditions: amount of applied herbicide 320 g/ha
In short: as §1

velvetleaf [10] = test: Test Example 5: herbicidal effect by foliage application, plastic box (Table 20, symbol M); assay type: in vivo, velvetleaf (Abutilon theophrasti); conditions: 320 g/ha, foliage application after 14-day growth, evaluated three weeks after application
In short: as §3

Chinese sprangletop = test: Test Example 3: herbicidal effect by foliage application, Wagner pot (Table 18, symbol D); assay type: in vivo, chinese sprangletop (Leptochloa chinensis); conditions: 320 g/ha
In short: (§4)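 Plants were sown in alluvial soil held under 0.1–0.5 cm standing water and grown 14 days in a greenhouse at 25–30 °C. An emulsifiable formulation, water-diluted to the set dose, was then sprayed onto the foliage, and effects were scored three weeks later using previously defined criteria.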

chickweed [11] = test: Test Example 4: herbicidal effect by soil treatment (Table 19, symbol P); assay type: in vivo, common chickweed (Stellaria media); conditions: amount of applied herbicide 320 g/ha
In short: as §1

windgrass [12] = test: Test Example 4: herbicidal effect by soil treatment (Table 19, symbol L); assay type: in vivo, windgrass (Apera spica-venti); conditions: amount of applied herbicide 320 g/ha
In short: as §1

Japanese bulrush = test: Test Example 1: herbicidal activity, application before weed generation under submerged conditions (Table 16, symbol B); assay type: in vivo, Japanese bulrush (Schoenoplectus juncoides); conditions: amount of applied herbicide 320 g/ha
In short: as §2

barnyard grass [13] = test: Test Example 4: herbicidal effect by soil treatment (Table 19, symbol H); assay type: in vivo, barnyard grass (Echinochloa crus-galli); conditions: amount of applied herbicide 320 g/ha
In short: as §1

Italian ryegrass [14] = test: Test Example 5: herbicidal effect by foliage application, plastic box (Table 20, symbol K); assay type: in vivo, Italian ryegrass (Lolium multiflorum); conditions: 320 g/ha, foliage application after 14-day growth, evaluated three weeks after application
In short: as §3

lambsquarters [15] = test: Test Example 4: herbicidal effect by soil treatment (Table 19, symbol O); assay type: in vivo, lambsquarters (Chenopodium album); conditions: amount of applied herbicide 320 g/ha
In short: as §1

wild oat [16] = test: Test Example 5: herbicidal effect by foliage application, plastic box (Table 20, symbol I); assay type: in vivo, wild oat (Avena fatua); conditions: 320 g/ha, foliage application after 14-day growth, evaluated three weeks after application
In short: as §3

green foxtail [17] = test: Test Example 5: herbicidal effect by foliage application, plastic box (Table 20, symbol G); assay type: in vivo, green foxtail (Setaria viridis); conditions: 320 g/ha, foliage application after 14-day growth, evaluated three weeks after application
In short: as §3

barnyard grass [18] = test: Test Example 3: herbicidal effect by foliage application, Wagner pot (Table 18, symbol H); assay type: in vivo, barnyard grass (Echinochloa crus-galli); conditions: 320 g/ha
In short: as §4

redroot pigweed [19] = test: Test Example 4: herbicidal effect by soil treatment (Table 19, symbol N); assay type: in vivo, redroot pigweed (Amaranthus retroflexus); conditions: amount of applied herbicide 320 g/ha
In short: as §1

barnyard grass [20] = test: Test Example 5: herbicidal effect by foliage application, plastic box (Table 20, symbol H); assay type: in vivo, barnyard grass (Echinochloa crus-galli); conditions: 320 g/ha, foliage application after 14-day growth, evaluated three weeks after application
In short: as §3

chickweed [21] = test: Test Example 5: herbicidal effect by foliage application, plastic box (Table 20, symbol P); assay type: in vivo, common chickweed (Stellaria media); conditions: 320 g/ha, foliage application after 14-day growth, evaluated three weeks after application
In short: as §3

rice flat sedge = test: Test Example 3: herbicidal effect by foliage application, Wagner pot (Table 18, symbol E); assay type: in vivo, rice flat sedge (Cyperus iria); conditions: 320 g/ha
In short: as §4

blackgrass [22] = test: Test Example 4: herbicidal effect by soil treatment (Table 19, symbol J); assay type: in vivo, blackgrass (Alopecurus myosuroides); conditions: amount of applied herbicide 320 g/ha
In short: as §1

persian speedwell [23] = test: Test Example 5: herbicidal effect by foliage application, plastic box (Table 20, symbol R); assay type: in vivo, Persian speedwell (Veronica persica); conditions: 320 g/ha, foliage application after 14-day growth, evaluated three weeks after application
In short: as §3

lambsquarters [24] = test: Test Example 5: herbicidal effect by foliage application, plastic box (Table 20, symbol O); assay type: in vivo, lambsquarters (Chenopodium album); conditions: 320 g/ha, foliage application after 14-day growth, evaluated three weeks after application
In short: as §3

redroot pigweed [25] = test: Test Example 5: herbicidal effect by foliage application, plastic box (Table 20, symbol N); assay type: in vivo, redroot pigweed (Amaranthus retroflexus); conditions: 320 g/ha, foliage application after 14-day growth, evaluated three weeks after application
In short: as §3

With `COc1ccc2c(-c3c(O)c(C)nn(C)c3=O)c(-c3ccc(OC(F)F)cc3)sc2c1` [3-159] as the compound, how does the “Herbicidal effect by soil treatment, I: wild oat” value (wild oat [1]) read?
Its value is 0 (Herbicidal rate of 5% or less (almost no effect)).

What about the “Herbicidal effect, A: late watergrass” value (late watergrass) of the same compound?
The value was 0 (Herbicidal rate of 5% or less (almost no effect)).

And the “Herbicidal effect by soil treatment, R: persian speedwell” value (persian speedwell [2])?
The value was 3 (Herbicidal rate of 40% or more and less than 70%).

And the “herbicidal effect on F: southern crabgrass (evaluation grade 0-5)” value (southern crabgrass [3])?
The value was 0 (Herbicidal rate of 5% or less (almost no effect)).

What about the “herbicidal effect on L: windgrass (evaluation grade 0-5)” value (windgrass [4]) of the same compound?
Its value is 0 (Herbicidal rate of 5% or less (almost no effect)).

And the “herbicidal effect on J: blackgrass (evaluation grade 0-5)” value (blackgrass [5])?
Its value is 3 (Herbicidal rate of 40% or more and less than 70%).

What about the “Herbicidal effect by soil treatment, F: southern crabgrass” value (southern crabgrass [6]) of the same compound?
The value was 0 (Herbicidal rate of 5% or less (almost no effect)).

What about the “Herbicidal effect, C: oval-leafed pondweed” value (oval-leafed pondweed) of the same compound?
The value was 3 (Herbicidal rate of 40% or more and less than 70%).

What about the “Herbicidal effect by soil treatment, G: green foxtail” value (green foxtail [7]) of the same compound?
Its value is 0 (Herbicidal rate of 5% or less (almost no effect)).

What about the “Herbicidal effect by soil treatment, K: Italian ryegrass” value (Italian ryegrass [8]) of the same compound?
The value was 0 (Herbicidal rate of 5% or less (almost no effect)).

What about the “Herbicidal effect by soil treatment, M: velvetleaf” value (velvetleaf [9]) of the same compound?
The value was 1 (Herbicidal rate of 5% or more and less than 20%).

What about the “herbicidal effect on M: velvetleaf (evaluation grade 0-5)” value (velvetleaf [10]) of the same compound?
Its value is 4 (Herbicidal rate of 70% or more and less than 90%).

What about the “herbicidal effect on Chinese sprangletop (D)” value (Chinese sprangletop) of the same compound?
Its value is 0 (Herbicidal rate of 5% or less (almost no effect)).

What about the “Herbicidal effect by soil treatment, P: chickweed” value (chickweed [11]) of the same compound?
Its value is 0 (Herbicidal rate of 5% or less (almost no effect)).

What about the “Herbicidal effect by soil treatment, L: windgrass” value (windgrass [12]) of the same compound?
Its value is 0 (Herbicidal rate of 5% or less (almost no effect)).

What about the “Herbicidal effect, B: Japanese bulrush” value (Japanese bulrush) of the same compound?
The value was 3 (Herbicidal rate of 40% or more and less than 70%).

And the “Herbicidal effect by soil treatment, H: barnyard grass” value (barnyard grass [13])?
The value was 0 (Herbicidal rate of 5% or less (almost no effect)).

And the “herbicidal effect on K: Italian ryegrass (evaluation grade 0-5)” value (Italian ryegrass [14])?
Its value is 4 (Herbicidal rate of 70% or more and less than 90%).

What about the “Herbicidal effect by soil treatment, O: lambsquarters” value (lambsquarters [15]) of the same compound?
The value was 4 (Herbicidal rate of 70% or more and less than 90%).

And the “herbicidal effect on I: wild oat (evaluation grade 0-5)” value (wild oat [16])?
Its value is 0 (Herbicidal rate of 5% or less (almost no effect)).

And the “herbicidal effect on G: green foxtail (evaluation grade 0-5)” value (green foxtail [17])?
The value was 0 (Herbicidal rate of 5% or less (almost no effect)).

What about the “herbicidal effect on barnyard grass (H)” value (barnyard grass [18]) of the same compound?
The value was 2 (Herbicidal rate of 20% or more and less than 40%).

And the “Herbicidal effect by soil treatment, N: redroot pigweed” value (redroot pigweed [19])?
The value was 4 (Herbicidal rate of 70% or more and less than 90%).

What about the “herbicidal effect on H: barnyard grass (evaluation grade 0-5)” value (barnyard grass [20]) of the same compound?
The value was 0 (Herbicidal rate of 5% or less (almost no effect)).

And the “herbicidal effect on P: chickweed (evaluation grade 0-5)” value (chickweed [21])?
Its value is 5 (Herbicidal rate of 90% or more (almost completely withered)).

And the “herbicidal effect on rice flat sedge (E)” value (rice flat sedge)?
Its value is 3 (Herbicidal rate of 40% or more and less than 70%).

And the “Herbicidal effect by soil treatment, J: blackgrass” value (blackgrass [22])?
Its value is 0 (Herbicidal rate of 5% or less (almost no effect)).

And the “herbicidal effect on R: persian speedwell (evaluation grade 0-5)” value (persian speedwell [23])?
Its value is 5 (Herbicidal rate of 90% or more (almost completely withered)).

What about the “herbicidal effect on O: lambsquarters (evaluation grade 0-5)” value (lambsquarters [24]) of the same compound?
Its value is 5 (Herbicidal rate of 90% or more (almost completely withered)).

And the “herbicidal effect on N: redroot pigweed (evaluation grade 0-5)” value (redroot pigweed [25])?
The value was 5 (Herbicidal rate of 90% or more (almost completely withered)).
